Measured values from patent EP1164141A2, “Opioid peptides and their use for treatment of pain” (AstraZeneca AB, priority 1994, dated 2001).
Square brackets hold non-standard residues; d marks the D form. Peptide text beside a SMILES is read from it. dNva = CCC[C@@H](N)C(=O)O

Assays:
[1] = degradation on exposure to brush border kidney membranes; format: in vitro ADME; conditions: exposed to brushborder kidney membranes
From the text: Many of the compounds listed in Table 1 show good µ-receptor binding but show weak analgesic effect in the mouse writhing assay. This anomaly may be due to rapid proteolysis, rapid clearence, or both. […] These three compounds are H-Tyr-D-Nva-Phe-Phe-NH2 (BCH2462), H-Tyr-D-Ser-Phe-Phe-NH2 (BCH2463), and H-Tyr-D-Arg-Phe-Phe-NH2 (BCH2687).
The effects of inhibition of proteolytic metabolism of BCH2463 by the inhibitor DL-Thiorphan has been studied and also the metabolic breakdown of BCH2463 mediated by brush border kidney membranes. The data obtained indicate that the kidney may be the principal site of clearance and metabolism for the compound BCH2463. From Figure 2, it appears that the endopeptidase enzyme EC24-11, which is inhibited by DL-thiorphan, is the preliminary mediator of BCH2463 proteolysis by brush border kidney extract.

mice [2] = test: PBQ (phenylquinone) induced writhing assay; format: in vivo; parameters: ED50 value: unit not given beside the values; conditions: for ED50 value: as shown in Table 1, PBQ writhing, unit not given; for peripheral analgesia: statement in words, writhing compared with hot plate
From the text: (§1) The term "ED50" as shown in table 1 for the PBQ writhing assays is defined as the dose of drug which induces a 50% reduction in the number of writhes observed compared to the control. The term "ED50" used in the hot-plate assays is defined as the dose of drug required to increase the latency of response 2-fold compared to controls and was determind by parallel-line probit analysis.
(§2) PBQ (phenyl-ρ-benzoquinone) induced writhing in mice is an assessment of both central and peripheral analgesia. For experimental protocol see Sigmund et al., Proc. Soc. Exp. Biol. Med., 95, p. 729 (1957) which is incorporated herein by reference. Central analgesia was determined by the inhibition of a hot plate response in mice. For experimental protocol see G. Woolfe and A. Macdonald, J. Pharmacol. Exp. Ther., 80, p.300 (1944) which is incorporated herein by reference. Assays measuring opioid receptor binding affinities for µ and δ receptors as well as GPI and MVD assays were determined through experimental protocol set out in Schiller et al., Biophys. Res. Commun., 85, p.1322 (1975) incorporated herein by reference.
The test was performed on CD #1 male mice weighing between 18 and 22g. The mice were weighed and marked. They were injected, by intra-peritoneal route, with 0.3ml/20g by weight with a solution of phenylquinone at 0.02%. The contortions which appeared during a 15 minute time period following the injection were counted. The phenylquinone was injected at time intervals of 5, 20 or 60 minutes after administration of the compound (or medium, or standard) by subcutaneous route. It was injected at time intervals of 60 minutes after the administration of the compound (or medium, or standard) by oral route;
The 0.02% phenylquinone^3 solution was prepared in the following fashion. 20mg of phenylquinone was dissolved in 5ml ethanol 90% (sigma, reagent, alcohol). The dissolved phenylquinone was slowly added to 95 ml of distilled water continuously shaken and preheated (not boiled). The phenylquinone solution was, at all times protected from light and a new solution was prepared every day for the test. It is recommended to wait 2 hours before using the phenylquinone solution. ** 2-phenyl-1,4-benzoquinone (Sigma)
The test may be carried out on 5 mice at the same time. Each group usually contained 10 mice. If an antagonist, such as naloxone, was used, it was administered 20 minutes before the compound (or the medium, or the standard) by intra-peritoneal route.

mice [3] = test: hot plate test (central analgesia); format: in vivo; conditions: for central analgesic effect: mouse hot plate test, even at doses of 100 mg/kg
From the text: as §1, §2
For this test, CD #1 male mice weighing between 20 and 25g were used. The mice were weighed, marked, and divided into groups of 10.
The mice were usually treated by subcutaneous injection of the compound (or the standard or the medium) in an injection volume equivalent to 0.1 ml/10g p.c. (10ml/kg). If an antagonist such as Nalaxone or N-methyl-Levallorphan was used, it was administered intra-peritoneally 20 minutes before the compound (or the standard, or the medium) was administered. The injection volume was also 0.1 ml/10g p.c. The dose of the antagonist was 10 mg/kg.
The mice were individually evaluated for reaction time on the hot plate. The temperature of the hot plate (Sorel, model DS37) was set at 55°C. […] The mice may be observed at different time intervals after administration of the compound (or medium, or standard). The time intervals may be 30, 60 or 120 minutes (or other).
For each time reading, the average reaction time of the control group was multiplied by 1.5. The reaction time of each treated mouse was compared to the "control average X 1.5.". […] The number of analgesic mice in a group determined the analgesic percentage of the compound for this reading.

mice [4] = test: lethality / safety after i.v. or s.c. administration; format: in vivo
Experimental: Therefore, the desired route of administration for these compounds is subcutaneous. Thus, the structural paradigm exemplified by BCH1774 can be modified while maintaining exclusion from the central nervous system even at doses as high as 100 mg kg^-1 s.c. and the deleterious i.v. toxicity can be minimized. Thus BCH2463 is not lethal to mice at doses at least as high as 20 mg kg^-1 (i.v.).

Structure (SMILES) | time within which rapidly degraded [1] [min] | duration in vivo of analgesic effects (mice [2]; 20 mg/kg s.c. of BCH1774 compared with 30 mg/kg s.c. of BCH2463 (Figure 3)) | ED50 value (mice [2]) | central analgesic effect (mice [3]) | lethal effects upon mice (mice [4]; 1-5 mg kg^-1 i.v. bolus dose) | peripheral analgesia (mice [2]) | reaction time (mice [3]; Figs. 1C, 1D, dose not given) | ED50 (mice [2]; mouse s.c., at 20 minutes post administration (Figure 2)) [mg/kg] | reaction time (mice [3]; mice treated with 100 mg/kg (Fig 1B), control approximately 7 seconds) | lethal effects upon mice (mice [4]; doses up to 20 mg kg^-1 i.v.)
C[C@@H](NC(=O)[C@@H](N)Cc1ccc(O)cc1)C(=O)N[C@@H](Cc1ccccc1)C(=O)N[C@@H](Cc1ccccc1)C(N)=O [BCH1774, H-Tyr-D-Ala-Phe-Phe-NH2] (H-Y[dA]FF-NH2) | 15 to 30 | lasted longer than for BCH2463 | 1.4 | lack of analgesic effect | exhibited lethal effects | – | – | – | – | –
N=C(N)NCCC[C@@H](NC(=O)[C@@H](N)Cc1ccc(O)cc1)C(=O)N[C@@H](Cc1ccccc1)C(=O)N[C@@H](Cc1ccccc1)C(N)=O [BCH2687, H-Tyr-D-Arg-Phe-Phe-NH2] (H-Y[dR]FF-NH2) | – | – | 0.5 | No central analgesic effect was observed | – | exhibit peripheral analgesia | approximately 8 seconds | – | – | –
NC(=O)[C@H](Cc1ccccc1)NC(=O)[C@H](Cc1ccccc1)NC(=O)[C@@H](CO)NC(=O)[C@@H](N)Cc1ccc(O)cc1 [BCH2463, H-Tyr-D-Ser-Phe-Phe-NH2] (H-Y[dS]FF-NH2) | – | – | 0.5 | No central analgesic effect was observed | – | exhibit peripheral analgesia | – | 0.5 | about 9 seconds | did not exhibit any lethal effects
CCC[C@@H](NC(=O)[C@@H](N)Cc1ccc(O)cc1)C(=O)N[C@@H](Cc1ccccc1)C(=O)N[C@@H](Cc1ccccc1)C(N)=O [BCH2462, H-Tyr-D-Nva-Phe-Phe-NH2] (H-Y[dNva]FF-NH2) | – | – | 2.7 | No central analgesic effect was observed | exhibited lethal effects | exhibit peripheral analgesia | approximately 8 seconds | – | – | –
